This experiment concerns HCV replicon (wild type NS3-NS5B regions of HCV type 1b) in Huh-7 luc/neo cells. The experiment in a line: HCV replicon assay (Huh-Luc cells, luciferase read-out). The format is cell-based. Conditions: Hepatitis C virus, Huh-7, 72 h, three days incubation, luciferase activity. From the text: The in vitro antiviral activity against HCV of the compounds of formula I can be tested in a cellular HCV replicon system based on Lohmann et al. (1999) Science 285:110-113, with the further modifications described by Krieger et al. (2001) Journal of Virology 75: 4614-4624 (incorporated herein by reference), which is further exemplified in the examples section. This model, while not a complete infection model for HCV, is widely accepted as the most robust and efficient model of autonomous HCV RNA replication currently available. It will be appreciated that it is important to distinguish between compounds that specifically interfere with HCV functions from those that exert cytotoxic or cytostatic effects in the HCV replicon model, and as a consequence cause a decrease in HCV RNA or linked reporter enzyme concentration. Assays are known in the field for the evaluation of cellular cytotoxicity based for example on the activity of mitochondrial enzymes using fluorogenic redox dyes such as resazurin. Furthermore, cellular counter screens exist for the evaluation of non-selective inhibition of linked reporter gene activity, such as firefly luciferase. Appropriate cell types can be equipped by stable transfection with a luciferase reporter gene whose expression is dependent on a constitutively active gene promoter, and such cells can be used as a counter-screen to eliminate non-selective inhibitors.
The compounds of formula (I) were examined for inhibitory activity in the HCV replicon. This cellular assay is based on a bicistronic expression construct, as described by Lohmann et al. (1999) Science vol. 285 pp. 110-113 with modifications described by Krieger et al. (2001) Journal of Virology 75: 4614-4624, in a multi-target screening strategy.
In essence, the method was as follows:
The assay utilized the stably transfected cell line Huh-7 luc/neo (hereafter referred to as Huh-Luc). This cell line harbors an RNA encoding a bicistronic expression construct comprising the wild type NS3-NS5B regions of HCV type 1b translated from an Internal Ribosome Entry Site (IRES) from encephalomyocarditis virus (EMCV), preceded by a reporter portion (FfL-luciferase), and a selectable marker portion (neo^R, neomycine phosphotransferase). The construct is flanked by 5′ and 3′ NTRs (non-translated regions) from HCV type 1b. Continued culture of the replicon cells in the presence of G418 (neo^R) is dependent on the replication of the HCV RNA. The stably transfected replicon cells that express HCV RNA, which replicates autonomously and to high levels, encoding inter alia luciferase, were used for screening the antiviral compounds.
The replicon cells were plated in 384 well plates in the presence of the test and control compounds which were added in various concentrations. Following an incubation of three days, HCV replication was measured by assaying luciferase activity (using standard luciferase assay substrates and reagents and a Perkin Elmer ViewLux™ ultraHTS microplate imager). Replicon cells in the control cultures have high luciferase expression in the absence of any inhibitor. The inhibitory activity of the compound on luciferase activity was monitored on the Huh-Luc cells, enabling a dose-response curve for each test compound. EC50 values were then calculated, which represent the amount of compound required to decrease the level of detected luciferase activity by 50%, or more specifically, to reduce the ability of the genetically linked HCV replicon RNA to replicate.
Take `O=C(Cc1cccnc1)N1CCC[C@H]1c1ncc(C#Cc2ccc(-c3cnc([C@@H]4CCCN4C(=O)Cc4cccnc4)[nH]3)cc2)[nH]1` [Compound 2]: the EC50 was 1.5 nM.

Regarding `O=C(Nc1ccccc1)N1CCC[C@H]1c1ncc(C#Cc2ccc(-c3cnc([C@@H]4CCCN4C(=O)Nc4ccccc4)[nH]3)cc2)[nH]1` [Compound 3], the EC50 was 810 nM.

Turning to `O=C(CC1CCCCC1)N1CCC[C@H]1c1ncc(C#Cc2ccc(-c3cnc([C@@H]4CCCN4C(=O)CC4CCCCC4)[nH]3)cc2)[nH]1` [Compound 4], the EC50 was 130 nM. Next, `CC(C)[C@@H](C(=O)N1CCC[C@H]1c1ncc(C#Cc2ccc(-c3cnc([C@@H]4CCCN4C(=O)[C@H](C(C)C)N(C)C)[nH]3)cc2)[nH]1)N(C)C` [Compound 21]: 36 nM. The result for `COC(=O)N[C@H](C(=O)N1CCC[C@H]1c1ncc(C#Cc2ccc(-c3cnc([C@@H]4CCCN4C(=O)[C@@H](NC(=O)OC)C(C)C)[nH]3)cc2)[nH]1)C(C)C` [Compound 28] reads 0.036 nM.

Turning to `CC(=O)N[C@@H](C(=O)N1CCC[C@H]1c1ncc(C#Cc2ccc(-c3cnc([C@@H]4CCCN4C(=O)[C@H](NC(C)=O)c4ccccc4)[nH]3)cc2)[nH]1)c1ccccc1` [Compound 32], the EC50 was under 0.48 nM. Next, `CNC(=O)N[C@H](C(=O)N1CCC[C@H]1c1ncc(C#Cc2ccc(-c3cnc([C@@H]4CCCN4C(=O)[C@@H](NC(=O)NC)C(C)C)[nH]3)cc2)[nH]1)C(C)C` [Compound 36]: 0.69 nM; `O=C([C@@H](c1ccccc1)N1CCCCC1)N1CCC[C@H]1c1ncc(C#Cc2ccc(-c3cnc([C@@H]4CCCN4C(=O)[C@@H](c4ccccc4)N4CCCCC4)[nH]3)cc2)[nH]1` [Compound 37]: 0.03 nM.

The values above are taken from patent publication US9045463B2, “Phenyl ethynyl derivatives as hepatitis C virus inhibitors” (Janssen R&D Ireland, priority 2009, dated 2015).
